Patent publication US20260297164A1, “ANTI-FIBROTIC PEPTIDES AND USES THEREOF” (Deackt, Inc., priority 2021, published 2026)

System: TGF-β1-induced PI3K/Akt/mTOR, p62, IKK signaling in mouse lung fibroblasts
Experiment: Western immunoblot of signaling proteins in TGF-β1-stimulated mouse lung fibroblasts (SDC2-pep)
Type: cell-based
Settings: wild type fibroblasts, TGF-β1 10 ng/ml, 24 h
Description: FIG. 5. […] (A-C) Ptprj^fl/fl Col1a2^Cre-ER(T)+/0 mice (fibroblast-specific CD148 deficient) and Col1a2^Cre-ER(T)+/0 (WT) mice were exposed to BLM. SDC2 18-aa peptide (SDC2-pep, 0.5 mg/kg) was intranasally delivered into WT and Ptprj^fl/fl Col1a2^Cre-ER(T)+/0 mice 10 days after BLM injury. Treatments were repeated at day 12, 14, 16 and 18. (A) At 24 days after BLM exposure lungs were harvested and stained with Masson's trichrome (n=3 for saline and n=5 for BLM groups). (B) Hydroxyproline content was measured in the left lung of mice exposed to BLM (n=11) or saline (n=5). Gene expression of (C) Fn and Col1a1; and (D) connective tissue growth factor (Ctgf) in harvested lungs were measured using qPCR (n=5 for each condition). […] (E) Expression of p-AKT/Akt, p-mTOR/mTOR, p62/GAPDH p-IKKα/β/IKKα, α-SMA/GAPDH, and CD148/GAPDH was determined by Western immunoblotting (n=4), and corresponding densitometry (ImageJ software). […] (F) mRNA levels of Col1a1 and Fn were measured by qPCR (n=5 for each condition). […] Gel contractility was measured at 0, 12, and 24 h after TGF-β1 stimulation (n=6 for each condition). […] Total cell concentrations were measured in BAL fluid from Ptprj^fl/fl Col1a2^Cre-ER(T)+/0 mice and Col1a2-Cre (control) mice 21 days after BLM injury (n=5/group). […]

With TGF-β1 the “expression of p-Akt, p-mTOR, p62, p-IKKα/β, and α-SMA” value was “increased”.
